Data taken from patent US10154990B2, “Medicaments for the treatment or prevention of fibrotic diseases” (Boehringer Ingelheim International GmbH, priority 2004, dated 2018).
Where a name gives a salt, the structure may show the parent alone.

melting point [°C] | Compound
205 to 208 | COC(=O)c1ccc2c(c1)NC(=O)/C2=C(\Nc1ccc(N(C)C(=O)N2CCN(C)CC2)cc1)c1ccccc1 [(ag), 3-Z-[1-(4-(N-((4-methyl-piperazin-1-yl)-carbonyl)-N-methyl-amino)-anilino)-1-phenyl-methylene]-6-methoxycarbonyl-2-indolinone]
288 to 292 | CCNC(=O)c1ccc2c(c1)NC(=O)/C2=C(\Nc1ccc(C(=O)N2CCN(C)CC2)cc1)c1ccccc1 [(cf), 3-Z-[1-(4-((4-methyl-piperazin-1-yl)-carbonyl)-anilino)-1-phenyl-methylene]-6-ethylcarbamoyl-2-indolinone]
190 to 195 | COC(=O)c1ccc2c(c1)NC(=O)/C2=C(\Nc1ccc(CN(C)C)cc1)c1ccc(CCC(=O)O)cc1 [(az), 3-Z-[1-(4-dimethylaminomethyl-anilino)-1-(4-(2-carboxy-ethyl)-phenyl)-methylene]-6-methoxycarbonyl-2-indolinone]
245 to 248 | CCNC(=O)c1ccc2c(c1)NC(=O)/C2=C\Nc1ccc(CN2CCCCC2)cc1 [(ct), 3-Z-[1-(4-(piperidin-1-yl-methyl)-anilino)-methylene]-6-ethylcarbamoyl-2-indolinone]
163 to 165 | COC(=O)c1ccc2c(c1)NC(=O)/C2=C(\Nc1ccc(N(C)C(=O)CN(C)C)c(C#N)c1)c1ccccc1 [(v), 3-Z-[1-(3-cyano-4-(N-dimethylaminomethylcarbonyl-N-methyl-amino)-anilino)-1-phenyl-methylene]-6-methoxycarbonyl-2-indolinone]
248 to 255 | COC(=O)c1ccc2c(c1)NC(=O)/C2=C(\Nc1ccc(CCN(C)C)cc1)c1cccc(CCC(=O)O)c1 [(ax), 3-Z-[1-(4-(2-dimethylamino-ethyl)-anilino)-1-(3-(2-carboxy-ethyl)-phenyl)-methylene]-6-methoxycarbonyl-2-indolinone]
203 to 207 | COC(=O)c1ccc2c(c1)NC(=O)/C2=C\Nc1ccc(N(C)C(=O)CN2CCN(C)CC2)cc1 [(cq), 3-Z-[1-(4-(N-((4-methyl-piperazin-1-yl)-methylcarbonyl)-N-methyl-amino)-anilino)-methylene]-6-methoxycarbonyl-2-indolinone]
130 | CCNC(=O)c1ccc2c(c1)NC(=O)/C2=C\Nc1ccc(N(CCCN(C)C)C(C)=O)cc1 [(cu), 3-Z-[1-(4-(N-(3-dimethylamino-propyl)-N-acetyl-amino)-anilino)-methylene]-6-ethylcarbamoyl-2-indolinone]
166 to 170 | COC(=O)c1ccc2c(c1)NC(=O)/C2=C(\Nc1ccc(N(C)C(=O)NCCCN(C)C)cc1)c1ccccc1 [(ai), 3-Z-[1-(4-(N-((3-dimethylamino-propyl)-aminocarbonyl)-N-methyl-amino)-anilino)-1-phenyl-methylene]-6-methoxycarbonyl-2-indolinone]
130 to 134 | CCNC(=O)c1ccc2c(c1)NC(=O)/C2=C(\Nc1ccc(N(C)C(=O)CN(C)C)cc1)c1ccccc1 [(by), 3-Z-[1-(4-(N-dimethylaminomethylcarbonyl-N-methyl-amino)-anilino)-1-phenyl-methylene]-6-ethylcarbamoyl-2-indolinone]
256 to 257 | NC(CCO)(CCO)c1ccc(N/C(=C2\C(=O)Nc3cc(C(=O)O)ccc32)c2ccccc2)cc1 (as salt: Na) [(aq), 3-Z-[1-(4-(di-(2-hydroxy-ethyl)-amino-methyl)-anilino)-1-phenyl-methylene]-6-carboxy-2-indolinone]
250 to 255 | COC(=O)c1ccc2c(c1)NC(=O)/C2=C\Nc1ccc(N(C)C(=O)CN(C)C)cc1 [(co), 3-Z-[1-(4-(N-dimethylaminomethylcarbonyl-N-methyl-amino)-anilino)-methylene]-6-methoxycarbonyl-2-indolinone]
335 | O=C1Nc2cc(C(=O)O)ccc2/C1=C(/Nc1ccc(CN2CCOCC2)cc1)c1ccccc1 [(ao), 3-Z-[1-(4-(morpholin-4-yl-methyl)-anilino)-1-phenyl-methylene]-6-carboxy-2-indolinone]
287 | CNCc1ccc(N/C(=C2\C(=O)Nc3cc(C(=O)O)ccc32)c2ccccc2)cc1 [(an), 3-Z-[1-(4-methylaminomethyl-anilino)-1-phenyl-methylene]-6-carboxy-2-indolinone]
308 to 311 | CCNC(=O)c1ccc2c(c1)NC(=O)/C2=C(\Nc1ccc(OCCN(C)C)cc1)c1ccccc1 [(bu), 3-Z-[1-(4-(2-dimethylamino-ethoxy)-anilino)-1-phenyl-methylene]-6-ethylcarbamoyl-2-indolinone]
195 to 198 | CCN(CC)C(=O)c1ccc2c(c1)NC(=O)/C2=C(\Nc1ccc(N(C)C(=O)CN2CCN(C)CC2)cc1)c1ccccc1 [(ci), 3-Z-[1-(4-(N-((4-methyl-piperazin-1-yl)-methylcarbonyl)-N-methyl-amino)-anilino)-1-phenyl-methylene]-6-diethylcarbamoyl-2-indolinone]

melting point [°C] | Compound
213 to 217 | CCNC(=O)c1ccc2c(c1)NC(=O)/C2=C(\Nc1ccc(N(CCN(C)C)S(C)(=O)=O)cc1)c1ccccc1 [(bw), 3-Z-[1-(4-(N-(2-dimethylamino-ethyl)-N-methylsulphonyl-amino)-anilino)-1-phenyl-methylene]-6-ethylcarbamoyl-2-indolinone]
280 | CN(C)CCN(c1ccc(N/C(=C2\C(=O)Nc3cc(C(=O)O)ccc32)c2ccccc2)cc1)S(C)(=O)=O [(ap), 3-Z-[1-(4-(N-(2-dimethylamino-ethyl)-N-methylsulphonyl-amino)-anilino)-1-phenyl-methylene]-6-carboxy-2-indolinone]
160 to 163 | COC(=O)c1ccc2c(c1)NC(=O)/C2=C(\Nc1ccc(N(C)C(=O)CN(C)C)c(OC)c1)c1ccccc1 [(w), 3-Z-[1-(3-methoxy-4-(N-dimethylaminomethylcarbonyl-N-methyl-amino)-anilino)-1-phenyl-methylene]-6-methoxycarbonyl-2-indolinone]
127 to 130 | CCNC(=O)c1ccc2c(c1)NC(=O)/C2=C(\Nc1ccc(C(=O)N2CCN(CC)CC2)cc1)c1ccccc1 [(ck), 3-Z-[1-(4-((4-ethyl-piperazin-1-yl)-carbonyl)-anilino)-1-phenyl-methylene]-6-ethylcarbamoyl-2-indolinone]
199 to 202 | COC(=O)c1ccc2c(c1)NC(=O)/C2=C(\Nc1ccc(N(C)C(=O)C(N)(CCO)CCO)cc1)c1ccccc1 [(z), 3-Z-[1-(4-(N-(di-(2-hydroxy-ethyl)-amino-methylcarbonyl)-N-methyl-amino)-anilino)-1-phenyl-methylene]-6-methoxycarbonyl-2-indolinone]
341 to 344 | CCNC(=O)c1ccc2c(c1)NC(=O)/C2=C(\Nc1ccc(CN(C)C)cc1)c1ccccc1 [(bz), 3-Z-[1-(4-dimethylaminomethyl-anilino)-1-phenyl-methylene]-6-ethylcarbamoyl-2-indolinone]
198 to 202 | CCNC(=O)c1ccc2c(c1)NC(=O)/C2=C(\Nc1ccc(N(CCCN(C)C)C(C)=O)cc1)c1ccccc1 [(cb), 3-Z-[1-(4-(N-(3-dimethylamino-propyl)-N-acetyl-amino)-anilino)-1-phenyl-methylene]-6-ethylcarbamoyl-2-indolinone]
275 | CN1CCN(Cc2ccc(N/C(=C3\C(=O)Nc4cc(C(=O)O)ccc43)c3ccccc3)cc2)CC1 [(am), 3-Z-[1-(4-(4-methylpiperazin-1-yl-methyl)-anilino)-1-phenyl-methylene]-6-carboxy-2-indolinone]
266 to 270 | CCNC(=O)c1ccc2c(c1)NC(=O)/C2=C(\Nc1ccc(N(CCN(C)C)C(C)=O)cc1)c1ccccc1 [(ca), 3-Z-[1-(4-(N-(2-dimethylamino-ethyl)-N-acetyl-amino)-anilino)-1-phenyl-methylene]-6-ethylcarbamoyl-2-indolinone]
163 to 167 | COC(=O)c1ccc2c(c1)NC(=O)/C2=C(\Nc1ccc(CN(C)C)cc1)c1cccc(CCC(=O)O)c1 [(aw), 3-Z-[1-(4-dimethylaminomethyl-anilino)-1-(3-(2-carboxy-ethyl)-phenyl)-methylene]-6-methoxycarbonyl-2-indolinone]
237 to 238 | CN(C(=O)CN1CCOCC1)c1ccc(N/C(=C2\C(=O)Nc3cc(C(=O)O)ccc32)c2ccccc2)cc1 [(as), 3-Z-[1-(4-(N-(morpholin-4-yl-methylcarbonyl)-N-methyl-amino)-anilino)-1-phenyl-methylene]-6-carboxy-2-indolinone]
238 to 240 | CN(C)CCN(C)CC(=O)N(C)c1ccc(N/C(=C2\C(=O)Nc3cc(C(=O)O)ccc32)c2ccccc2)cc1 [(at), 3-Z-[1-(4-(N—(N-(2-dimethylamino-ethyl)-N-methyl-aminomethylcarbonyl)-N-methyl-amino)-anilino)-1-phenyl-methylene]-6-carboxy-2-indolinone]
234 to 238 | COC(=O)c1ccc2c(c1)NC(=O)/C2=C\Nc1ccc(CN(C)C)cc1 [(cp), 3-Z-[1-(4-dimethylaminomethyl-anilino)-methylene]-6-methoxycarbonyl-2-indolinone]
184 to 190 | COC(=O)c1ccc2c(c1)NC(=O)/C2=C(\Nc1ccc(-c2nccn2C)cc1)c1cccc(CCC(=O)O)c1 [(ay), 3-Z-[1-(4-(1-methyl-imidazol-2-yl)-anilino)-1-(3-(2-carboxy-ethyl)-phenyl)-methylene]-6-methoxycarbonyl-2-indolinone]
254 to 257 | COC(=O)c1ccc2c(c1)NC(=O)/C2=C(\Nc1ccc(NC(=O)CN2CCN(C)CC2)c(C)c1C)c1ccccc1 [(ae), 3-Z-[1-(2,3-dimethyl-4-(N-((4-methyl-piperazin-1-yl)-methylcarbonyl)-amino)-anilino)-1-phenyl-methylene]-6-methoxycarbonyl-2-indolinone]
279 to 283 | CCNC(=O)c1ccc2c(c1)NC(=O)/C2=C(\Nc1ccc(N(C)C(=O)CN2CCN(C)CC2)cc1)c1ccccc1 [(bv), 3-Z-[1-(4-(N-((4-methyl-piperazin-1-yl)-methylcarbonyl)-N-methyl-amino)-anilino)-1-phenyl-methylene]-6-ethylcarbamoyl-2-indolinone]
